Results on 18 compounds are retold here after article PMC5526604 (Journal of medicinal chemistry, 2017).

Read-outs that look alike come from different tables or passages of the source.

For one test, the target named is HIV integrase (Human immunodeficiency virus type 1 group M subtype B, UniProt P04585). The test can be described thus: HIV IN assay. Format: biochemical, HIV-1.
Test [1] has as its target HIV RT-associated RNase H (Human immunodeficiency virus type 1 group M subtype B, UniProt P04585). The following applies: biochemical.
The mark [2] stands for this setting: read-out: Biochemical Inhibition INST IC50, as relisted in Table 2.

The IC50 is the concentration needed to halve the response being measured. `O=C(NCc1ccc(F)cc1)c1c(Nc2ccc(-c3ccccc3)cc2)[nH]c(=O)n(O)c1=O` [Compound 10e, N-(4-Fluorobenzyl)-1-(hydroxy)-1,2,3,6-tetrahydro-2,6-dioxo-4-(biphenylamino)pyrimidine-5-carboxamide] returned an IC50 against HIV integrase of over 100 µM. The same measure, in the same setting: next, `O=C(NCc1cccc(Cl)c1F)c1c(Nc2ccc(-c3ccccc3)cc2)[nH]c(=O)n(O)c1=O` [Compound 10h, N-(3-Chloro-2-fluorobenzyl)-1-(hydroxy)-1,2,3,6-tetrahydro-2,6-dioxo-4-(biphenylamino)pyrimidine-5-carboxamide]: over 100 µM. As for `O=C(NCc1ccccc1)c1c(Nc2ccccc2)[nH]c(=O)n(O)c1=O` [Compound 10s, N-Benzyl-1-(hydroxy)-1,2,3,6-tetrahydro-2,6-dioxo-4-(phenylamino)pyrimidine-5-carboxamide], the “selectivity of RNase H inhibition over INST inhibition” value in test [1] was about 4 fold. In the case of `O=C(Nc1ccc(-c2ccccc2)cc1)c1c(NCc2ccccc2)[nH]c(=O)n(O)c1=O` [Compound 10o, N-([1,1′-Biphenyl]-4-yl)-6-(benzylamino)-3-hydroxy-2,4-dioxo-1,2,3,4-tetrahydropyrimidine-5-carboxamide], the IC50 against HIV integrase and at HIV integrase (setting [2]) was over 100 µM in each case.

As for `O=C(NCc1ccccc1F)c1c(Nc2ccc(-c3ccccc3)cc2)[nH]c(=O)n(O)c1=O` [Compound 10g, N-(2-Fluorobenzyl)-1-(hydroxy)-1,2,3,6-tetrahydro-2,6-dioxo-4-(biphenylamino)pyrimidine-5-carboxamide], at HIV integrase, the IC50 was over 100 µM. In the case of `O=C(Nc1ccccc1)c1c(NCc2ccccc2)[nH]c(=O)n(O)c1=O` [Compound 10q, 6-(Benzylamino)-3-hydroxy-2,4-dioxo-N-phenyl-1,2,3,4-tetrahydropyrimidine-5-carboxamide], the IC50 against HIV integrase and on HIV integrase (setting [2]) was over 100 µM in each case. On to `O=C(NCc1cc(F)ccc1F)c1c(Nc2ccc(-c3ccccc3)cc2)[nH]c(=O)n(O)c1=O` [Compound 10j, N-(2,5-Difluorobenzyl)-1-(hydroxy)-1,2,3,6-tetrahydro-2,6-dioxo-4-(biphenylamino) pyrimidine-5-carboxamide], for which the 50% inhibitory concentration (IC50) on HIV integrase and at HIV integrase (setting [2]) was over 100 µM each time. At HIV integrase, `O=C(Nc1ccc(-c2ccc(F)cc2)cc1)c1c(Nc2ccc(-c3ccccc3)cc2)[nH]c(=O)n(O)c1=O` [Compound 10b, 6-([1,1′-Biphenyl]-4-ylamino)-N-(4′-fluoro-[1,1′-biphenyl]-4-yl)-3-hydroxy-2,4-dioxo-1,2,3,4-tetrahydropyrimidine-5-carboxamide] came in with an IC50 of over 100 µM.

On to `O=C(NCc1ccc(F)cc1F)c1c(Nc2ccc(-c3ccccc3)cc2)[nH]c(=O)n(O)c1=O` [Compound 10i, N-(2,4-Difluorobenzyl)-1-(hydroxy)-1,2,3,6-tetrahydro-2,6-dioxo-4-(biphenylamino) pyrimidine-5-carboxamide], for which the IC50 at HIV integrase and on HIV integrase (setting [2]) was over 100 µM in each case. On to `O=C(NCc1ccc(-c2ccccc2)cc1)c1c(NCc2ccc(-c3ccccc3)cc2)[nH]c(=O)n(O)c1=O` [Compound 10l], for which the IC50 at HIV integrase and on HIV integrase (setting [2]) was over 100 µM throughout. Regarding `CCc1ccc(NC(=O)c2c(NCc3ccccc3)[nH]c(=O)n(O)c2=O)cc1` [Compound 10v, 6-(Benzylamino)-N-(4-ethylphenyl)-3-hydroxy-2,4-dioxo-1,2,3,4-tetrahydropyrimidine-5-carboxamide], the IC50 at HIV integrase and at HIV integrase (setting [2]) was over 100 µM throughout. Consider `O=C(Nc1ccc(-c2ccccc2)cc1)c1c(NCc2ccc(-c3ccccc3)cc2)[nH]c(=O)n(O)c1=O` [Compound 10k, N-([1,1′-Biphenyl]-4-yl)-6-(([1,1′-biphenyl]-4-ylmethyl)amino)-3-hydroxy-2,4-dioxo-1,2,3,4-tetrahydropyrimidine-5-carboxamide], for which the concentration for half-maximal inhibition (IC50) at HIV integrase and on HIV integrase (setting [2]) was over 100 µM in each case. As for `O=C(NCc1cccc(F)c1)c1c(Nc2ccc(-c3ccccc3)cc2)[nH]c(=O)n(O)c1=O` [Compound 10f, N-(3-Fluorobenzyl)-1-(hydroxy)-1,2,3,6-tetrahydro-2,6-dioxo-4 (biphenylamino)pyrimidine-5-carboxamide], the concentration for half-maximal inhibition (IC50) against HIV integrase and at HIV integrase (setting [2]) was over 100 µM in each case. `COc1ccc(-c2ccc(NC(=O)c3c(Nc4ccc(-c5ccccc5)cc4)[nH]c(=O)n(O)c3=O)cc2)cc1` [Compound 10c, 6-([1,1′-Biphenyl]-4-ylamino)-3-hydroxy-N-(4′-methoxy-[1,1′-biphenyl]-4-yl)-2,4-dioxo-1,2,3,4-tetrahydropyrimidine-5-carboxamide] yielded an IC50 at HIV integrase of over 100 µM. On the same count and under the same terms, next, `O=C(Nc1ccc(-c2ccccc2)cc1)c1c(Nc2ccc(-c3ccccc3)cc2)[nH]c(=O)n(O)c1=O` [Compound 10a, N-([1,1′-Biphenyl]-4-yl)-6-([1,1′-biphenyl]-4-ylamino)-3-hydroxy-2,4-dioxo-1,2,3,4-tetrahydropyrimidine-5-carboxamide]: over 100 µM. For `O=C(Nc1ccc(C(F)(F)F)cc1)c1c(NCc2ccccc2)[nH]c(=O)n(O)c1=O` [Compound 10y, 6-(Benzylamino)-3-hydroxy-2,4-dioxo-N-(4-(trifluoromethyl)phenyl)-1,2,3,4-tetrahydropyrimidine-5-carboxamide], the IC50 at HIV integrase and on HIV integrase (setting [2]) was over 100 µM each time. With `O=C(Nc1ccccc1)c1c(NCc2ccc(-c3ccccc3)cc2)[nH]c(=O)n(O)c1=O` [Compound 10m, 6-(([1,1′-Biphenyl]-4-ylmethyl)amino)-3-hydroxy-2,4-dioxo-N-phenyl-1,2,3,4-tetrahydropyrimidine-5-carboxamide], the half-inhibitory concentration (IC50) on HIV integrase and at HIV integrase (setting [2]) was over 100 µM throughout.

In the case of `O=C(NCc1ccc(-c2ccccc2)cc1)c1c(NCc2ccccc2)[nH]c(=O)n(O)c1=O` [Compound 10p, N-([1,1′-Biphenyl]-4-ylmethyl)-6-(benzylamino)-3-hydroxy-2,4-dioxo-1,2,3,4-tetrahydropyrimidine-5-carboxamide], the half-maximal inhibitory concentration (IC50) against HIV integrase and on HIV integrase (setting [2]) was over 100 µM throughout.
